The results in this text go back to US20240041898A9, “NEUROSTEROIDS AND ENANTIOMERS THEREOF FOR THE PREVENTION AND TREATMENT OF NEURODEGENERATIVE CONDITIONS” (priority 2019, published 2024).

For the assay, the system named is pressure-loaded ex vivo rat retinas. Format: cell-based. As to conditions: 75 mmHg; for NDS (neuronal damage score) / NDS, Average: 0-4 scale; for NDS (neuronal damage score) / NFLT vs. RT (%) / Damaged cells in GCL: 24 h, mean±SD; for NDS (neuronal damage score) / NDS, Average / Damaged cells in GCL / NFLT, Average / Damaged cell, Average: neurosteroid 1 μM; for NDS, Average / NFLT, Average / Damaged cell, Average: Average of 9; for axonal swelling in the nerve fiber layer (NFL), light micrographs: 1 μM; for NFLT vs. RT (%): neurosteroid 1 μM (Picro 1 μM, 3-MA 10 mM where named); for Damaged cell, Average: GCL. The procedure: Rat ex vivo Eyecup Preparation—Rat ex vivo eyecups were prepared from 28-32 day old male Sprague-Dawley rats (Charles River Laboratories International Inc., Wilmington, MA). The anterior half of the enucleated eyes was carefully removed to make eyecup preparations. Eyecups were placed at the bottom of a 100 ml glass beaker filled with aCSF (artificial cerebrospinal fluid) containing (in mM): 124 NaCl, 5 KCl, 2 MgSO4, 2 CaCl2, 1.25 NaH2PO4, 22 NaHCO3, and 10 glucose, and incubated at 30° C. for 24 hours using a closed pressure-loading system (FIG. 1C). pH was maintained at 7.35 to 7.40. In the closed-pressure system, a glass beaker with the eyecup was placed at the bottom of an acrylic pressure chamber (2,000 ml volume). A 95% O2-5% CO2 gas mixture was delivered through disposable plastic tubing with an infusion valve and a control dial on the lid of the pressure chamber and an air filter (Cat #SLGP033RS, Merck Millipore, Billerica, MA). The plastic tubing delivering the gas terminated 1 cm above the bottom of the beaker.
Acutely prepared eyecups were incubated in gassed aCSF for at least 1 h at 30° C. before pressure loading. In some experiments, AlloP (1 μM), ent-AlloP (1 μM), and 3-MA (10 mM) were dissolved in aCSF at the time of experiment and administered by bath perfusion. Eyecup preparations were treated with these drugs for 1 h at 30° C. before pressure loading. For pressure loading, the 95% O2-5% CO2 gas mixture was infused until the pressure reading given by a manometer reached the appropriate level. The pressure was then locked by adjusting the control dial of the effusion valve, and monitored continuously for 24 h at 30° C.
Data analysis of morphometry—The middle portion of the retina was examined, greater than 1,200 μm away from the center of the optic disc along the inner limiting membrane (ILM). The nerve fiber layer thickness (NFLT) was measured by light microscopy along 5 lines perpendicular to the pigment epithelium at a distance of 15 μm from each other around 1,200 μm away from the center of the optic disc. The average NFLT was determined in 9 different light micrographs taken from 5 eyecup samples in each condition, divided by total retinal thickness, and mean±standard deviation (%) was analyzed and compared with control.
The density of degenerated cells characterized by nuclear chromatin clumping or necrosis in the GCL was determined by counting 9 fields of 500 μm length in light micrographs taken from the block of the middle retinal part 950 to 1450 μm away from the center of the optic disc.
The severity of neuronal damage was assessed by light microscopy using a neuronal damage score (NDS). The NDS was determined in 9 different light micrographs taken from 5 eyecup samples in each condition. The NDS rates neuronal damage in the inner nuclear layer (INL) and the inner plexiform layer (IPL) on a 0-4 scale with 0 signifying no neuronal damage and 4 indicating very severe damage. Criteria used in establishing the degree of neuronal damage included the extent of cytoplasmic swelling in the IPL and the number of neurons in the INL showing signs of severe cytoplasmic swelling and coarse clumping of nuclear chromatin. The highest NDS rating (4) is given when the IPL discloses apparent spongiform appearance due to dendritic swelling and when most cell bodies in the INL show severe cytoplasmic swelling and coarse clumping of nuclear chromatin. If the damage is of a lesser degree, a rating of 3 is given. NDS 2 is assigned when cell bodies in the INL are sporadically swollen. […] Fine dendritic swelling in a limited area of the IPL without damage in the INL is described by NDS 1.
NFLT, density of degenerated cells in the GCL, and NDS were determined as the measurement of 10 different areas from three eyes per experimental condition. These morphometrical parameters were assessed by three raters, who remained unaware of the experimental condition. […]

In the case of `CC(=O)[C@H]1CC[C@H]2[C@@H]3CC[C@H]4C[C@H](O)CC[C@]4(C)[C@H]3CC[C@]12C` [AlloP, allopregnanolone], the “NDS (neuronal damage score)” value came out at 0.2 ± 0.4; the “NDS, Average” value is 0.2; the “axonal swelling in the nerve fiber layer (NFL), light micrographs” value is given as “attenuated”; the “NFLT vs. RT (%)” value is recorded as 1.5 ± 0.6%. Further, the “Damaged cells in GCL” value is reported as 2.0 ± 1.7 per 250 μm of retina; the “NFLT, Average” value was found to be 1.5%; the “Damaged cell, Average” value is 2.0.

Turning to `CC(=O)[C@@H]1CC[C@@H]2[C@H]3CC[C@@H]4C[C@@H](O)CC[C@@]4(C)[C@@H]3CC[C@]21C` [ent-AlloP, ent-allopregnanolone], the “NDS (neuronal damage score)” value is 0.2 ± 0.4; the “NDS, Average” value amounted to 0.2; the “axonal swelling in the nerve fiber layer (NFL), light micrographs” value is “substantially inhibited”; the “NFLT vs. RT (%)” value came to 1.6 ± 0.6%. For the same compound, the “Damaged cells in GCL” value is recorded as 1.9 ± 1.2 per 250 μm of retina; the “NFLT, Average” value amounted to 1.6%; the “Damaged cell, Average” value is 1.9.
